Earlier results in US6537525B1, “Medicated chewing-gum” (priority 1997, dated 2003).

Key:
[1] = tested on: esophageal lesions associated with heartburn; details: versus placebo or ranitidine
[2] = antacid; versus magnesium trisilicate or magnesium carbonate

SMILES	effectiveness in the healing of esophageal lesions associated with heartburn [1]	potency relative to magnesium trisilicate or magnesium carbonate [2] [times]
NC(N)=Nc1nc(CSCCC(N)=NS(N)(=O)=O)cs1 [Famotidine]	significantly more effective than placebo or ranitidine	–
[O]=[Mg] [Magnesium oxide, magnesium oxide]	–	8 to 10
